Columns and labels:
CDK2 = CDK2 (Homo sapiens, UniProt P24941); test: CDK2 substrate phosphorylation assay (biotinylated peptide, [g-32P]ATP); format: biochemical; conditions: read-out: CDK2 inhibition
[1] = molecular target: Cyclin D1 and cyclin-dependent kinase 4 (CDK4) (Homo sapiens, UniProt P11802); test: CDK4 substrate phosphorylation assay (phosphorylation of GST-Rb protein, [33P]-ATP); format: biochemical; conditions: read-out: CDK4 inhibition
Procedure: The compounds of the present invention have valuable pharmacologic properties. Different compounds from this class are particularly effective at inhibiting CDK2 and/or CDK4 enzymes at concentrations, which range from 0.0001 to 1 μM and additionally show specificity relative to other kinases. Substrate phosphorylation assays were carried out as follows.
Cyclin D1 and cyclin-dependent kinase 4 were expressed utilizing a baculovirus expression system. The catalytic activity of CDK4 protein was assayed by measuring the phosphorylation of Rb protein. A truncated Rb protein (residues 773-928 of the native retinoblastoma protein, fused to glutathione S-transferase to facilitate purification) was used as the phosphoryl acceptor. The assay conditions were 100 mM HEPES (N-[2-hydroxyethyl]piperzine-N′-[2-ethanesulfonic acid]), pH 7.5, 0.5 μM GST-Rb protein, 1 μCi/mL [^33P]-ATP (1 nM-20 μM), 5-20 mM MgCl2, 2.5 mM EDTA, 1 mM dithiothreitol, 0.2 mg/mL bovine serum albumin, 2% (v/v) dimethyl sulfoxide (DMSO), CDK4 enzyme (5-50 nM) in a final volume of 50 μL Reactions were incubated for time periods of 10-60 min at 30° C. and terminated by the addition of 50 μL quench (1 mM ATP/100 mM EDTA, pH 7.0). Detection of protein phosphorylation was accomplished by scintillation counting following collection of protein in 96 well plates coated with Glutathione or trapping of protein onto phosphocellulose filters. Counts detected by these methodologies minus the appropriate background were assumed to be proportional to the reaction initial rates. […] IC50s were determined by a least squares fit to the equation CPM=Vmax*(1-([I]/(K+[I])))+nsb, or pIC50s were determined by a fit to the equation CPM=nsb+(Vmax−nsb)/(1+(x/10^x−pIC50)), where nsb are the background counts.

[2] = system: chemotherapy-induced alopecia; test: Neonatal rat model of chemotherapy-induced alopecia; format: in vivo, Sprague Dawley rats; conditions: compounds in 100% DMSO applied topically to the scalp prior to chemotherapy; scored at day 21
Excerpt: Animal Model for Chemoprotection
Neonatal rat model of chemotherapy-induced alopecia: Time-pregnant female Sprague Dawley rats were purchased from Charles River Breeding Laboratories. Rat pups born on the same day were randomized at birth to 15 or 16 pups/mom/cage and were housed with moms during the study period. Each experimental group consisted of either 5 or 8 rats. For the etoposide model of CIA, rat pups received etoposide (VePesid, Bristol Laboratories Oncology Products, Princeton, N.J.) 6 mg/kg, ip, at 13 days of age (23). […] Compounds were formulated in 100% DMSO and applied topically to the scalp, 50 μL per application. Pups were treated with two topical applications of compounds 10 hours and 4 hours (t=−10, −4 hours) on both days 12 and 13 prior to chemotherapy administration. Pups were separated from mom during the topical application dosing period to prevent grooming and removal of compound. […] Inhibitor efficacy data was analyzed by comparing the % of drug-treated responders and the % of vehicle-treated responders. The amount of hair present on rat scalp at day 21 were scored and averaged for each inhibitor treated rat and ranked as +, ++ and +++.

Cyclin D1 and cyclin-dependent kinase 4 (CDK4), sequence (P11802 whole entry, species assumed): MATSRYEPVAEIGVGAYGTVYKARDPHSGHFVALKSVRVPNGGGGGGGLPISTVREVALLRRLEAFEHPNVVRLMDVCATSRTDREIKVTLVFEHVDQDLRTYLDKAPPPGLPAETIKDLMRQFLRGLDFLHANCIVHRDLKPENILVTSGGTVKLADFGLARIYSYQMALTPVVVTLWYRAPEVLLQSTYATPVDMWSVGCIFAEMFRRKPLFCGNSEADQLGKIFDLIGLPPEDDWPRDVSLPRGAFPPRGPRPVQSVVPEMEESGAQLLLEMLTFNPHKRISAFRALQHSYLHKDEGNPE
Cyclin D1 and cyclin-dependent kinase 4 (CDK4), sequence (P24385 whole entry partner, species assumed): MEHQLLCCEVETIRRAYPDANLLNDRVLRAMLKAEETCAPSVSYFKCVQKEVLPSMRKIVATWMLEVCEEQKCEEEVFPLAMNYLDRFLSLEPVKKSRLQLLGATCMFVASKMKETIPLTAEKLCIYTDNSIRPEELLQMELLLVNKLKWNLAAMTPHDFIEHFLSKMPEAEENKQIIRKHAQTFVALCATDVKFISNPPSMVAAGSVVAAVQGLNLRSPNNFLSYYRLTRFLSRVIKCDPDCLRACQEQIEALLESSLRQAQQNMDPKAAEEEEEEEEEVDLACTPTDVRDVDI

| IC50 (CDK2) [nM] | IC50 [1] [nM] | Compound | Rank (amount of hair present on rat scalp at day 21) [2] |
| --- | --- | --- | --- |
| < 100 | < 100 | O=C1CCCN1CCCNc1nccc(-c2cnn3ncccc23)n1 [Example 22, 1-{3-[(Pyrazolo[1,5-b]pyridazin-3-yl-2-pyrimidinyl)amino]propyl}-2-pyrrolidinone] |  |
| < 100 |  | NS(=O)(=O)c1ccc(Nc2nccc(-c3cnn4ncccc34)n2)cc1 [Example 62, N-(4-aminosulfonylphenyl)-4-pyrazolo[1,5-b]pyridazin-3-yl-2-pyrimidinamine] |  |
| < 100 | < 100 | Cc1cc(Nc2nccc(-c3cnn4ncccc34)n2)ccc1N1CCN(C)CC1 [Example 25, N-[3-Methyl-4-(4-methyl-1-piperazinyl)phenyl]-4-pyrazolo[1,5-b]pyridazin-3-yl-2-pyrimidinamine] |  |
| < 100 | < 100 | c1cc(Nc2nccc(-c3cnn4ncccc34)n2)cc(-c2cnco2)c1 [Example 14, N-[3-(1,3-Oxazol-5-yl)phenyl]-4-pyrazolo[1,5-b]pyridazin-3-yl-2-pyrimidinamine] | + |
| < 1000 | < 100 | CN(C)c1ccc(Nc2nccc(-c3cnn4nc(N5CCOCC5)ccc34)n2)cc1 [Example 53, N-^1-N^1-Dimethly-N^4-{4-[6-(4-morpholinyl)pyrazolo[1,5-b]pyridazin-3-yl]-2-pyrimidinyl}-1,4-benzenediamine] |  |
| < 100 | < 100 | CN1CCN(c2ccc(Nc3nccc(-c4cnn5ncccc45)n3)cc2Cl)CC1 [Example 23, N-[3-Chloro-4-(4-methyl-1-piperazinyl)phenyl]-4-pyrazolo[1,5-b]pyridazin-3-yl-2-pyrimidinamine] | +++ |
| < 1000 | < 1000 | COc1ccc2c(-c3ccnc(NC4CC4)n3)cnn2n1 [Example 36, N-Cyclopropyl-4-(6-methoxypyrazolo[1,5-b]pyridazin-3-yl)-2-pyrimidinamine] |  |
| < 1000 | < 1000 | Clc1ccccc1-c1ccc2c(-c3ccnc(NC4CC4)n3)cnn2n1 [Example 42, 4-[6-(2-Chlorophenyl)pyrazolo[1,5-b]pyridazin-3-yl]-N-cyclopropyl-2-pyrimidinamine] |  |

The next lines start with the compound.

| Compound | IC50 (CDK2) [nM] | IC50 [1] [nM] | Rank (amount of hair present on rat scalp at day 21) [2] |
| --- | --- | --- | --- |
| FC(F)(F)c1cccc(Nc2nccc(-c3cnn4ncccc34)n2)c1 [Example 9, 4-Pyrazolo[1,5-b]pyridazin-3-yl-N-[3-(trifluoromethyl)phenyl]-2-pyrimidinamine] | < 100 | < 100 | ++ |
| c1cnn2ncc(-c3ccnc(NC4CC4)n3)c2c1 [Example 1, N-Cyclopropyl-4-pyrazolo[1,5-b]pyridazin-3-yl-2-pyrimidinamine] |  | < 100 |  |
| Clc1ccc(Nc2nccc(-c3cnn4ncccc34)n2)cc1 [Example 5, N-(4-Chlorophenyl)pyrazolo[1,5-b]pyridazin-3-yl-2-pyrimidinamine] | < 100 | < 100 |  |
| N#Cc1cccc(Nc2nccc(-c3cnn4ncccc34)n2)c1 [Example 7, 3-[(4-Pyrazolo[1,5-b]pyridazin-3-yl-2-pyrimidinyl)amino]benzonitrile] | < 100 | < 100 | +++ |
| O=[N+]([O-])c1cccc(Nc2nccc(-c3cnn4ncccc34)n2)c1 [Example 10, N-(3-Nitrophenyl)-4-pyrazolo[1,5-b]pyridazin-3-yl-2-pyrimidinamine] | < 100 | < 100 |  |
| COc1cc(Nc2nccc(-c3cnn4ncccc34)n2)cc(C(F)(F)F)c1 [Example 57] |  |  | + |
